CN(C)CCC=C1c2ccccc2CCc2ccccc21.Cl
solubility (mole fraction)
Details	278.15 K	283.15 K	288.15 K	293.15 K	298.15 K	303.15 K	308.15 K	313.15 K	318.15 K	323.15 K
in 2-butoxyethanol	0.0451	0.0494	0.0531	0.0595	0.066	0.0722	0.0793	0.0864	0.0942	0.102
in 2-ethoxyethanol	0.084	0.0895	0.0954	0.101	0.108	0.115	0.123	0.132	0.141	0.151
in 2-methoxyethanol	0.127	0.132	0.138	0.143	0.149	0.155	0.162	0.169	0.177	0.185
in 2-propoxyethanol	0.06	0.0641	0.0686	0.075	0.0814	0.0881	0.0955	0.103	0.111	0.119
in DMF	0.0295	0.0323	0.0354	0.0388	0.0423	0.0466	0.0509	0.0557	0.0611	0.0674
in NMP	0.0311	0.0342	0.0372	0.0412	0.0448	0.0492	0.0543	0.0594	0.0652	0.0716
in ethanol	0.0337	0.0423	0.0528	0.0653	0.0794	0.0938	0.108	0.122	0.136	0.148
in methanol	0.144	0.152	0.16	0.168	0.175	0.183	0.189	0.196	0.202	0.207
in n-butanol	0.0148	0.0187	0.0242	0.0316	0.0405	0.0508	0.0628	0.0765	0.091	0.105
in n-heptanol	0.0101	0.0124	0.0151	0.0184	0.0225	0.0274	0.0333	0.0402	0.0484	0.0581
in n-hexanol	0.0116	0.0145	0.0176	0.0217	0.027	0.0332	0.0407	0.0492	0.0595	0.0712
in n-octanol	0.00215	0.00267	0.00322	0.00388	0.00471	0.00568	0.00688	0.00824	0.00991	0.012
in n-pentanol	0.0127	0.0162	0.02	0.025	0.0321	0.04	0.0497	0.0613	0.0743	0.0887
in n-propanol	0.0218	0.028	0.0357	0.0453	0.0572	0.0708	0.0855	0.101	0.117	0.131

Source: BigSolDB 2.1
